Laboratory results from BindingDB's records for doi:10.1038/nchembio.2134 (University of Pennsylvania, 2016).

Key:
Assay in all cases: HDAC6 fluorescence anisotropy assay
Settings in all cases: 25 °C
[1] = biological target: T1, Histone deacetylase 6 [440-798] (Danio rerio, UniProt F8W4B7)
T1 construct: 440-798
T1 sequence (F8W4B7 whole entry): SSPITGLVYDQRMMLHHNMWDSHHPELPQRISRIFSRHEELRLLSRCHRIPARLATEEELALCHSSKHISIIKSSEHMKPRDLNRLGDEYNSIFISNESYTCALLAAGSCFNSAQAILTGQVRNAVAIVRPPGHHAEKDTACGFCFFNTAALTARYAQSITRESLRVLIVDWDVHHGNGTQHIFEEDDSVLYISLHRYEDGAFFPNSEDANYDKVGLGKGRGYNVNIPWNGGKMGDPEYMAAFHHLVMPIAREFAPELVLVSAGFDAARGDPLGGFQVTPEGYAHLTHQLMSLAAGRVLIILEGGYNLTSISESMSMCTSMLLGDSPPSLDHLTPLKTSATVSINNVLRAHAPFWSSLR

[2] = biological target: T2, Histone deacetylase 6 [60-420,H82F,F202Y] (Danio rerio, UniProt F8W4B7, F202Y/H82F)
T2 construct: 60-420
T2 sequence (F8W4B7 as listed by the source H82F/F202Y): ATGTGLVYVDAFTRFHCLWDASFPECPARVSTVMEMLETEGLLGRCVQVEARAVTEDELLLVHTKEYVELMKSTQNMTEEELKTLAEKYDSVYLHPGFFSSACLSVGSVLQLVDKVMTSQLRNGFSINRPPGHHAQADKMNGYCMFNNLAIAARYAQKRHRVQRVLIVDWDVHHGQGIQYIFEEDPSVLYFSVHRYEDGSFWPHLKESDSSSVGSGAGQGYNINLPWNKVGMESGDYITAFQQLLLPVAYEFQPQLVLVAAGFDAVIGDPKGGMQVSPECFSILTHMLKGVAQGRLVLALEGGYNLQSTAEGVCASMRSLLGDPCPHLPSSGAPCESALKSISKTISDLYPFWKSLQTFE

[3] = biological target: T3, Histone deacetylase 6 [440-798,S531A] (Danio rerio, UniProt F8W4B7, S531A)
T3 construct: 440-798
T3 sequence (F8W4B7 as listed by the source S531A): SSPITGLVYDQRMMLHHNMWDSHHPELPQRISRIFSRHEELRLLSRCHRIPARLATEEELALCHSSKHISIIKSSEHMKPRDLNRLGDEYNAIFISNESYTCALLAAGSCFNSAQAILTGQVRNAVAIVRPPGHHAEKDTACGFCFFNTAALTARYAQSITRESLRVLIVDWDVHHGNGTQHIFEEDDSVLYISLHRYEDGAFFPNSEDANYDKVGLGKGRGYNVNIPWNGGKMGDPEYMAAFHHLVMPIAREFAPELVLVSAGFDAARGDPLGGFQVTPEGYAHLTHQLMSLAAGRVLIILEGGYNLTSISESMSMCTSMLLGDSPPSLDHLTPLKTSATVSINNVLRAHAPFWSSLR

[4] = biological target: T4, Histone deacetylase 6 [84-835,H651V] (Homo sapiens, UniProt Q9UBN7, H651V)
T4 construct: 84-835
T4 sequence (Q9UBN7 84-835 H651V): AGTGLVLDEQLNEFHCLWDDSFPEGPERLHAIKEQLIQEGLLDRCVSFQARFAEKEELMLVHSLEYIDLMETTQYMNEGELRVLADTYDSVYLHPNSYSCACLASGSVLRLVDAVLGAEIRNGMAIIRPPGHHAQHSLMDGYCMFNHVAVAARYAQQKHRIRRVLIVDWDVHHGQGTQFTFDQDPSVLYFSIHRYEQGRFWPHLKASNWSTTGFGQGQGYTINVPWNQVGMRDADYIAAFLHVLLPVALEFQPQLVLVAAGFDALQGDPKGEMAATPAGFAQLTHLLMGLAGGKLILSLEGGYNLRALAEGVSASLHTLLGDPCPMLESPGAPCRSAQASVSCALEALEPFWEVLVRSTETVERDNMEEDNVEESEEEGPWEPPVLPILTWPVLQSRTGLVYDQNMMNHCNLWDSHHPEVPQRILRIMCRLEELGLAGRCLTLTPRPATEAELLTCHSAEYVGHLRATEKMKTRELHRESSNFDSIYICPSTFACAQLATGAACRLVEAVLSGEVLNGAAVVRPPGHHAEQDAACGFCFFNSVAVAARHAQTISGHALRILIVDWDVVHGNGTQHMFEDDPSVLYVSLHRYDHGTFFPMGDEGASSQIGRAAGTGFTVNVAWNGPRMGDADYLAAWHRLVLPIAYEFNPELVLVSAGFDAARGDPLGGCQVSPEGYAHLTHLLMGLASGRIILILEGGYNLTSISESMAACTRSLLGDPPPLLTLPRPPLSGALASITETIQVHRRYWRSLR

[5] = biological target: T5, Histone deacetylase 6 [84-835] (Homo sapiens, UniProt Q9UBN7)
T5 construct: 84-835
T5 sequence (Q9UBN7 whole entry): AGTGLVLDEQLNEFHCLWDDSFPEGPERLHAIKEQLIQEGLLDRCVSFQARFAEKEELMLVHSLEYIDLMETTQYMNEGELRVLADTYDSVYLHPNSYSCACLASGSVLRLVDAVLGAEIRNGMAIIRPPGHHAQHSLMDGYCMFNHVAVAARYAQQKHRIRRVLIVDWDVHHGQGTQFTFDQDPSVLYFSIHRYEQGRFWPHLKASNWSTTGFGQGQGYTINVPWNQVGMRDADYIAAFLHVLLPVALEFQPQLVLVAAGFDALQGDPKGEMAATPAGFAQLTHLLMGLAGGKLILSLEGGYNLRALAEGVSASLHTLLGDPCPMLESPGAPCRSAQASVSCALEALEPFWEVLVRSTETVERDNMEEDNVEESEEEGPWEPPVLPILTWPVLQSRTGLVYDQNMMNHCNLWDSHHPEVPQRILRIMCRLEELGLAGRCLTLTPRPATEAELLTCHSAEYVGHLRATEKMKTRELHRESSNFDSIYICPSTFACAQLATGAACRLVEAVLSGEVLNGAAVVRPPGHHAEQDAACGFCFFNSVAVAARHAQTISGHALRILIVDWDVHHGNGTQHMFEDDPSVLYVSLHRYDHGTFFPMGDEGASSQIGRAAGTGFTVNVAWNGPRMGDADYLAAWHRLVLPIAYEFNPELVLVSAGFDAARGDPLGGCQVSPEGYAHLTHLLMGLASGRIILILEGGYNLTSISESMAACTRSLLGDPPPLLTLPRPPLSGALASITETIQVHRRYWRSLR

[6] = biological target: T6, Histone deacetylase 6 [84-835,H255V] (Homo sapiens, UniProt Q9UBN7, H255V)
T6 construct: 84-835
T6 sequence (Q9UBN7 84-835 H255V): as the sequence (Q9UBN7 84-835 H651V) above, with H172V, V568H counted along it

[7] = biological target: T7, Histone deacetylase 6 [60-420] (Danio rerio, UniProt F8W4B7)
T7 construct: 60-420
T7 sequence (F8W4B7 whole entry): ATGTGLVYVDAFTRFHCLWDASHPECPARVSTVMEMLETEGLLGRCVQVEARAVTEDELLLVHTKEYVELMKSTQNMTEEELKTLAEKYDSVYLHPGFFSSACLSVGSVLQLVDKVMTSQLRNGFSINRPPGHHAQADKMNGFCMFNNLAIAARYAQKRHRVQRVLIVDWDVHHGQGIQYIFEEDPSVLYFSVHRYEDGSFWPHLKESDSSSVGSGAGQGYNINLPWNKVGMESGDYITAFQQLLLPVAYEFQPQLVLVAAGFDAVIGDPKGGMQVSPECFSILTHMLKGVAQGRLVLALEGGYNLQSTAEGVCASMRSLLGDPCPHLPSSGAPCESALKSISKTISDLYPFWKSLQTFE

SMILES: O=C(CCCCCCC(=O)Nc1ccccc1)NO [Zolinza]
- IC50 [1]: ≤ 1.1 nM
- Ki [1]: 0.6 nM

SMILES: O=C(/C=C/c1cccc(S(=O)(=O)Nc2ccccc2)c1)NO [Belinostat]
- IC50 [1]: 1.9 nM
- Ki [1]: 1.1 nM

SMILES: O=C(NO)c1ccc(CC(=O)N(CCO)c2ccccc2)cc1 [HPOB]
- IC50 [1]: 1.8 nM
- Ki [1]: 1 nM

SMILES: CC(=O)C(F)(F)F [Trifluoroketone]
- IC50 [1]: 1400 nM
- Ki [1]: 800 nM

SMILES: Cc1[nH]c2ccccc2c1CCNCc1ccc(C=CC(=O)NO)cc1 [Panobinostat]
- IC50 [1]: 2.5 nM
- Ki [1]: 1.4 nM

SMILES: O=C(CCCCCCC(=O)Nc1ccc(-c2c3ccc(=O)cc-3oc3cc(O)ccc23)c(C(=O)O)c1)NO [fl-SAHA]
- Kd [2]: 2900 nM
- Kd [1]: 50 nM
- Kd [3]: 170 nM
- Kd [4]: 30 µM
- Kd [5]: 300 nM
- Kd [6]: 240 nM
- Kd [7]: 1600 nM
